Earlier results as cited in patent publication US20210236427A1, “Development of Lipid Matrix Granules with Incorporation of Polysaccharides for Effective Delivery of an Antimicrobial Essential Oil” (University of Manitoba, priority 2018, published 2021).

Tested on: Brachyspira hyodysenteriae
Settings: in vitro; Vande Maele et al., 2016

- minimum inhibitory concentration (MIC): less than 1.5 mM
SMILES: CCCCCCCCCCCC(=O)O [lauric acid]
